Data set [1] has as its system MGC80-3. In words: MTT cytotoxicity assay, MGC80-3. The format is cell-based, human. How it is done: (§1) The in vitro cytotoxicity of OD, 1–3 and the corresponding metal salts were determined by MTT assay towards a panel of human tumor cells including HepG2, T-24, BEL-7404, MGC80-3, SK-OV-3/DDP and normal HL-7702 cells. As the positive control, cisplatin was dissolved at a concentration of 1 mM in 0.154 M NaCl[32].
(§2) The human tumor cell lines (BEL-7404, HepG2, MGC80–3, T-24, SK-OV-3/DDP and HeLa cells) and the human normal liver cell line HL-7702 were obtained from Shanghai Cell Bank in Chinese Academy of Sciences. Cells were cultured in Dulbecco’s modified Eagle’s medium (DMEM) or RPMI-1640 medium, which supplemented with 10% fetal bovine serum (FBS) and 100 U/mL penicillin and streptomycin. Cells were cultured at 37 °C in a humidified atmosphere with 5% CO2/95% air. Tested compounds (2.0 mM) were prepared as DMSO stock solution before they were diluted to working concentrations by PBS buffer (containing 0.5% DMSO), while cisplatin dissolved in 0.9% sodium chloride solution was used as positive controls.
(§3) Cells in their logarithmic phase were seeded in 96-well plates with 5.5 × 10^3/180 μL per well for 24 h. Then 20 μL of compounds at various concentrations were added to each well to achieve final concentrations of 1.25, 2.5, 5.0, 10.0, and 20.0 μM. All the cells were incubated with test compounds for another 48 h before MTT assay. Control wells contained media with 0.5% DMSO. After 48 h of cultivation, 10 μL of MTT (5 mg/mL in PBS) was added to each well, and cells were incubated at 37 °C for 6 h. The contents in the wells were pipetted out carefully, and the formazan crystals formed were dissolved in 100 μL of DMSO, and the absorbance was measured by enzyme labeling instrument with 490 nm/630 nm double wavelength measurement. The IC50 value was defined as a drug concentration killing 50% cells in comparison with untreated controls, which was calculated by the Bliss method (n = 5). All tests were repeated in at least three independent trials.

Data set [2] is described as follows: Solution stability by HPLC. Type of data set: physicochemical. To be noted: TBS; 0 and 24 h; mobile phase methanol/H2O 80/20. How it is done: The stability of 1–3 in Tris-HCl buffer solution (TBS, pH = 7.35, containing 1% DMSO) for 0, 12 and 48 h were primarily analyzed by means of UV-Vis spectroscopy, as shown in Figure S1.
The stability of 1–3 under physiological conditions ([…] buffer solution with pH value of 7.35, containing 1% DMSO), was carried out using UV-vis spectroscopy and HPLC. 1–3 were dissolved in DMSO at 1 × 10^−3 M, and then diluted by buffer solution. The UV-vis absorbance of these complexes at 0 h, 12 h and 48 h were measured, respectively. The solution stability of 3 was further confirmed by HPLC experiments. 3 in aqueous solution at 1.0 mg · mL^−1 was analyzed by HPLC at 0 h and 24 h respectively, with reversed-phase C18 column and methol/H2O (80:20) as mobile phase.

Data set [3] concerns HepG2 xenograft. In words: HepG2 xenograft nude mice model, tumor growth inhibition. The format is in vivo, BALB/c nude mice.
Protocol: The mice were randomized into control group, 3-treated groups and positive control group (n = 6). Once the tumor had grown to an average volume of about 100 mm^3, two group of nude mice were injected intraperitoneally (ip) of 3 at a high dose (6.0 mg/kg) and a low (3.0 mg/kg) dose daily for 20 days, respectively. Cisplatin was used as positive control injected at 2.0 mg/kg every two days, while control group received solvents only.
BALB/c nude mice (male, 17–20 g, 5–6 weeks old) were supplied by Guangxi Medical University Laboratory Animal Centre (Guangxi, China, approval no. SCXK 2014–0002 and SYXK 2014–0003). All of the experimental procedures were carried out according to the NIH Guidelines for the Care and Use of Laboratory Animals. Animal experiments were approved by the Animal Care and Use Committee of Guangxi Medical University. Animal were housed at IVC system (individual ventilated caging) with conditions of constant photoperiod (12 h light/12 h dark at 25−28 °C and 45−65% humidity). The xenograft tumor model was established in the same way as we reported before[30]. The maximum solubility of 3 in DMSO/saline solvent (v/v, 5/100) with administration volume 0.8 mL/20 g was used as the high dose (6.0 mg/kg) group (n = 6). Meanwhile low dose group mice got 3.0 mg/kg, intraperitoneal injection every day, and the control group received corresponding solvent. The positive control group was administered with cisplatin at 2.0 mg/kg every two days by intraperitoneal injection (cisplatin dissolved in saline).
The tumor volumes and body weight were measured every 3 days, and tumor size was calculated as volume = (w^2l)/2, where w is the width and l is the length in mm of tumor[70]. On day 21, the mice were sacrificed, and the tumor tissue was dissected out and weighted. The in vivo antitumor activity is evaluated by two indicators[71][72]: the tumor relative increment rate (T/C = TRTV/CRTV × 100%) and tumor weight inhibition rate [IR = (Wc − Wt)/Wc × 100%,], where TRTV and CRTV were the RTV of treated group and control group, respectively (RTV: relative tumor volume, RTV = Vt /V0); Wt and Wc are the average tumor weight of complex-treated and vehicle controlled group, respectively.
Data set [4] concerns cleaved PARP. In words: Western blot of cleaved PARP in HepG2 cells. Type of data set: cell-based, human. To be noted: 24 h. Here is the method: During the caspases-activated apoptotic cascades, mitochondrial apoptotic genes Apaf-1, PARP play an important role. The expressions of Apaf-1, pro-PARP and cleaved PARP in HepG2 cells treated with 3 were carried out by Western blotting. […] The expression of Apaf-1 protein was further confirmed by RT-PCR (Fig. 13C) that the up-regulation of Apaf-1 was also observed. PARP was considered to be an important indicator of cell apoptosis, and the cleaved PARP could cause cellular inactivation and prevent DNA repair.
After incubated with 1–3 (1.0 μM) for 24 h, HepG2 cells were harvested and lysed in 150 μL of lysed buffer (149 μL RIPA and 1 μL PMSF), and then placed on ice for 15 min. The total proteins were extracted by centrifuging the cell sample at 10000 rpm at 4 °C for 10 min. Then about 50 μg of purified proteins were mixed with equal volume of electrophoresis sample buffer, and the mixture was boiled for 10 min. Meanwhile the equal protein content from the control cells was prepared in the same way. The cell sample (10 μL) was loaded onto 10% SDS-PAGE gels and then transferred onto a microporous polyvinylidene difluoride (PVDF) membrane. The membrane was blocked with 5% BSA in TBST buffer for more than 2 h. […] The immunoreactive signals were detected using an enhanced chemo-luminance kit (Pierce ECL Western Blotting Substrate) following the procedures given in the user manual.

The test system of data set [5] is HL-7702. Nature of the data set: MTT cytotoxicity assay, normal liver cells HL-7702. Type of data set: cell-based, human. The conditions noted are these: 48 h. How it is done: as §1, §2, §3
(Formazan colour is commonly taken as a measure of viable cells.)

Data set [6] has as its system HepG2 cells. Nature of the data set: Comet assay for DNA damage. Set-up: unit not given here. Type of data set: cell-based, human. To be noted: HepG2, 1.0 μM, 24 h. Here is the method: After the observation of significant S-phase arrest caused by 1–3, the study of DNA damage assay is necessary. The single cell gel electrophoresis technique (comet assay) is a simple, sensitive, reliable, and rapid method to detect DNA damage in eukaryotic cell[39]. As shown in Table 3 and Fig. 6, 1–3 at 1.0 μM induced DNA damage (fragmentation or unwinding) appeared as fluorescent comets with remarkable increase of tails size, especially for 3.
The comet assay is a simple method for measuring DNA strand breaks in cells. The comet assay reagent kit was purchased from Trevigen, and the experiment was carried out according to the manufacturer’s instructions. After treatment with OD and 1–3 at 1.0 μM, HepG2 cells were harvested and suspended at 1 × 10^6 Hep-G2 cells/mL in PBS. The cells suspension was mixed with melted LM agarose at a ratio of 1:10 (v/v). An aliquot (75 μL) of the mixture was immediately pipetted onto the slide (Comet Slide TM). After refrigeration for 30 min, the slide was immersed in pre-chilled lysis solution and left on ice for 60 min, followed by immersing in freshly prepared alkaline solution (300 mM NaOH, 1 mM EDTA, pH > 13) for 60 min on ice in darkness. After DNA unwinding, the slide was subjected to alkaline solution for electrophoresis in a Savant ps 250 system set at 300 mA and 1 volt/cm for 30 min. After electrophoresis, the slide was rinsed with distilled H2O, fixed in 70% ethanol for 5 min and air-dried overnight. DNA was stained with SYBR Green I (Trevigen) and visualized under a fluorescence microscope (Nikon, Eclipse E600).

The term IC50 denotes the midpoint of a concentration-inhibition curve. Regarding [Zn(OD)2(H2O)2] (ClO4)2 [Complex 3], the inhibitive ratio in data set [1] (MGC80-3, 20 μmol/L, 48 h) turned out to be 67.30±0.21%. This substance also yielded an IC50 in data set [1] (MGC80-3, 48 h, MTT) of 4.31 ± 0.31 µM. Besides, in data set [2], the “stability in solution (HPLC chromatograms)” value is reported as “no obvious changes of HPLC chromatograms”. In data set [3] (3.0 mg/kg ip daily for 20 days), the “IR (tumor weight inhibition rate)” value is on record as 26.4% and the “T/C (tumor relative increment rate)” value is recorded as 75.49%. In data set [3] (6.0 mg/kg ip daily for 20 days), the “IR (tumor weight inhibition rate)” value is reported as 32.8% and the “T/C (tumor relative increment rate)” value was 55.57%. In addition, the “increment of cleaved PARP” value in data set [4] is “approximately 70 fold”. Moreover, the inhibitive ratio in data set [5] (HL-7702, 20 μmol/L) is recorded as 59.26±0.15%. Moreover, the IC50 in data set [5] (HL-7702 normal liver cells, MTT) worked out at 7.13 ± 0.46 µM. In data set [6], this substance gave a Comet length of 119.12 ± 6.59, an Olive tail moment of 22.67 ± 3.76, a Tail length of 58.67 ± 9.14 and a Tail moment of 30.46 ± 6.98.

These data come from article PMC5402304, “Oxoaporphine Metal Complexes (Co^II, Ni^II, Zn^II) with High Antitumor Activity by Inducing Mitochondria-Mediated Apoptosis and S-phase Arrest in HepG2” (Scientific Reports, 2017).
